{
  "source": "the supplement of paper PMC11208160",
  "data": [
    {"experiment": "recombinant UMI read abundance after kanamycin selection (control-corrected) (log10(CPM+1)); higher = more efficient recombination; extreme values may be limits of the assay; sequences stand for … in AGTGCAGAGAAAATCGGCCAGTTTTCTCTGCCTGCAGTCCGCATGCCGTGGGACCCCTTGGGTTCTAACCTGTTGCCTAGATTTATGCAGCGGACTGCCTTTCTCCCAAAGTGATAAACCGG…AGGTTGGTTTCACT; site = the 11-nt donor", "outline": "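In a pooled Escherichia coli screen for the IS621 bridge recombinase, donor and donor-binding-loop pairs were each placed with a 12-nt UMI on a plasmid bearing a promoterless kanamycin gene. This library was co-electroporated with a target plasmid encoding a fixed target and T7-inducible recombinase, and cells were plated either on IPTG (0.07 mM) plus kanamycin or without selection, in two replicates each. Recombinant UMIs were PCR-amplified across the donor–target junction and sequenced, and counts were converted to CPM, averaged over replicates, scaled by control-derived factors and reported as log10(CPM+1).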", "values": [
      {"sequence": "GCGAAGGCATGGACCGGTTTTCCCGGTAATCCGTATTTGGG (site GCGAAGACTCC)", "recombinant UMI read abundance (log10)": 0.255},
      {"sequence": "GCGAAGGCATGGACCGGTTTTCCCGGTAATCCGTATTTGGG (site GCGAAGCCTCC)", "recombinant UMI read abundance (log10)": 0.00939},
      {"sequence": "GCGAAGGCATGGACCGGTTTTCCCGGTAATCCGTATTTGGG (site GCGAAGGCTCC)", "recombinant UMI read abundance (log10)": 0.562},
      {"sequence": "GCGAAGGCATGGACCGGTTTTCCCGGTAATCCGTATTTGGG (site GCGAAGTCTCC)", "recombinant UMI read abundance (log10)": 0.779},
      {"sequence": "GCGAATACATGGACCGGTTTTCCCGGTAATCCGTATTTGCT (site GCGAAAACTAG)", "recombinant UMI read abundance (log10)": 0},
      {"sequence": "GCGAATACATGGACCGGTTTTCCCGGTAATCCGTATTTGCT (site GCGAACACTAG)", "recombinant UMI read abundance (log10)": 0},
      {"sequence": "GCGAATACATGGACCGGTTTTCCCGGTAATCCGTATTTGCT (site GCGAAGACTAG)", "recombinant UMI read abundance (log10)": 0},
      {"sequence": "GCGAATACATGGACCGGTTTTCCCGGTAATCCGTATTTGCT (site GCGAATACTAG)", "recombinant UMI read abundance (log10)": 0},
      {"sequence": "GCGAATGCATGGACCGGTTTTCCCGGTAATCCGTATTTGGA (site GCGAATGCTTC)", "recombinant UMI read abundance (log10)": 1.42},
      {"sequence": "GCGACGCCATGGACCGGTTTTCCCGGTAATCCGTATTTGGG (site GCGAAGCCTCC)", "recombinant UMI read abundance (log10)": 0.0164},
      {"sequence": "GCGACGCCATGGACCGGTTTTCCCGGTAATCCGTATTTGGG (site GCGACGCCTCC)", "recombinant UMI read abundance (log10)": 0.00484},
      {"sequence": "GCGACGCCATGGACCGGTTTTCCCGGTAATCCGTATTTGGG (site GCGAGGCCTCC)", "recombinant UMI read abundance (log10)": 0.0192},
      {"sequence": "GCGACGCCATGGACCGGTTTTCCCGGTAATCCGTATTTGGG (site GCGATGCCTCC)", "recombinant UMI read abundance (log10)": 0.00415},
      {"sequence": "GCGATAACATGGACCGGTTTTCCCGGTAATCCGTATTTGCT (site GCGAAAACTAG)", "recombinant UMI read abundance (log10)": 0},
      {"sequence": "GCGATAACATGGACCGGTTTTCCCGGTAATCCGTATTTGCT (site GCGACAACTAG)", "recombinant UMI read abundance (log10)": 0.00488},
      {"sequence": "GCGATAACATGGACCGGTTTTCCCGGTAATCCGTATTTGCT (site GCGAGAACTAG)", "recombinant UMI read abundance (log10)": 0},
      {"sequence": "GCGATAACATGGACCGGTTTTCCCGGTAATCCGTATTTGCT (site GCGATAACTAG)", "recombinant UMI read abundance (log10)": 2.43},
      {"sequence": "GCGATACCATGGACCGGTTTTCCCGGTAATCCGTATTTGAT (site GCGATACCTAT)", "recombinant UMI read abundance (log10)": 0},
      {"sequence": "GCGATTCCATGGACCGGTTTTCCCGGTAATCCGTATTTGTA (site GCGATTCCTTA)", "recombinant UMI read abundance (log10)": 1.49},
      {"sequence": "GCGCATGCATGGACCGGTTTTCCCGGTAATCCGTATTTGGT (site GAGCATGCTAC)", "recombinant UMI read abundance (log10)": 0.595},
      {"sequence": "GCGCATGCATGGACCGGTTTTCCCGGTAATCCGTATTTGGT (site GCGCATGCTAC)", "recombinant UMI read abundance (log10)": 1.14},
      {"sequence": "GCGCATGCATGGACCGGTTTTCCCGGTAATCCGTATTTGGT (site GGGCATGCTAC)", "recombinant UMI read abundance (log10)": 0.0133},
      {"sequence": "GCGCATGCATGGACCGGTTTTCCCGGTAATCCGTATTTGGT (site GTGCATGCTAC)", "recombinant UMI read abundance (log10)": 0.622},
      {"sequence": "GCGCCTCCATGGACCGGTTTTCCCGGTAATCCGTATTTGGG (site GCGCCTCCTCC)", "recombinant UMI read abundance (log10)": 0.0195},
      {"sequence": "GCGCGCTCATGGACCGGTTTTCCCGGTAATCCGTATTTGAA (site GCGCGCTCTTT)", "recombinant UMI read abundance (log10)": 1.82},
      {"sequence": "GCGCTCACATGGACCGGTTTTCCCGGTAATCCGTATTTGCC (site GCGCTCACTGG)", "recombinant UMI read abundance (log10)": 2.47},
      {"sequence": "GCGGACACATGGACCGGTTTTCCCGGTAATCCGTATTTGCT (site GCGGACACTAG)", "recombinant UMI read abundance (log10)": 2.44},
      {"sequence": "GCGGAGGCATGGACCGGTTTTCCCGGTAATCCGTATTTGTG (site GAGGAGGCTCA)", "recombinant UMI read abundance (log10)": 0.367},
      {"sequence": "GCGGAGGCATGGACCGGTTTTCCCGGTAATCCGTATTTGTG (site GCGGAGGCTCA)", "recombinant UMI read abundance (log10)": 1.37},
      {"sequence": "GCGGAGGCATGGACCGGTTTTCCCGGTAATCCGTATTTGTG (site GGGGAGGCTCA)", "recombinant UMI read abundance (log10)": 0.333},
      {"sequence": "GCGGAGGCATGGACCGGTTTTCCCGGTAATCCGTATTTGTG (site GTGGAGGCTCA)", "recombinant UMI read abundance (log10)": 0.832},
      {"sequence": "GCGGCATCATGGACCGGTTTTCCCGGTAATCCGTATTTGTC (site GCGGCATCTGA)", "recombinant UMI read abundance (log10)": 2.21},
      {"sequence": "GCGGGCGCATGGACCGGTTTTCCCGGTAATCCGTATTTGAT (site GCGGGCGCTAT)", "recombinant UMI read abundance (log10)": 1.44},
      {"sequence": "GCGGGTGCATGGACCGGTTTTCCCGGTAATCCGTATTTGCC (site GCGGGTGCTGG)", "recombinant UMI read abundance (log10)": 1.43},
      {"sequence": "GCGGTTCCATGGACCGGTTTTCCCGGTAATCCGTATTTGTC (site GCGGTTCCTGA)", "recombinant UMI read abundance (log10)": 0},
      {"sequence": "GCGTAGGCATGGACCGGTTTTCCCGGTAATCCGTATTTGCT (site GCGTAGGCTAG)", "recombinant UMI read abundance (log10)": 2.51},
      {"sequence": "GCGTCAACATGGACCGGTTTTCCCGGTAATCCGTATTTGCG (site GCGTCAACTCG)", "recombinant UMI read abundance (log10)": 0.00614},
      {"sequence": "GCGTCGTCATGGACCGGTTTTCCCGGTAATCCGTATTTGTT (site GCGTCGTCTAA)", "recombinant UMI read abundance (log10)": 0.947},
      {"sequence": "GCTACCTCATGGACCGGTTTTCCCGGTAATCCGTATTTGTC (site GCTACCTCTGA)", "recombinant UMI read abundance (log10)": 2.17},
      {"sequence": "GCTACGCCATGGACCGGTTTTCCCGGTAATCCGTATTTGTA (site GCAACGCCTTA)", "recombinant UMI read abundance (log10)": 0.00895},
      {"sequence": "GCTACGCCATGGACCGGTTTTCCCGGTAATCCGTATTTGTA (site GCCACGCCTTA)", "recombinant UMI read abundance (log10)": 0.0278},
      {"sequence": "GCTACGCCATGGACCGGTTTTCCCGGTAATCCGTATTTGTA (site GCGACGCCTTA)", "recombinant UMI read abundance (log10)": 0.162},
      {"sequence": "GCTACGCCATGGACCGGTTTTCCCGGTAATCCGTATTTGTA (site GCTACGCCTTA)", "recombinant UMI read abundance (log10)": 0.343},
      {"sequence": "GCTACTCCATGGACCGGTTTTCCCGGTAATCCGTATTTGCC (site GCTACTACTGG)", "recombinant UMI read abundance (log10)": 0},
      {"sequence": "GCTACTCCATGGACCGGTTTTCCCGGTAATCCGTATTTGCC (site GCTACTCCTGG)", "recombinant UMI read abundance (log10)": 0},
      {"sequence": "GCTACTCCATGGACCGGTTTTCCCGGTAATCCGTATTTGCC (site GCTACTGCTGG)", "recombinant UMI read abundance (log10)": 0},
      {"sequence": "GCTACTCCATGGACCGGTTTTCCCGGTAATCCGTATTTGCC (site GCTACTTCTGG)", "recombinant UMI read abundance (log10)": 0.0501},
      {"sequence": "GCTACTGCATGGACCGGTTTTCCCGGTAATCCGTATTTGGC (site GCTACTGCTGA)", "recombinant UMI read abundance (log10)": 0.76},
      {"sequence": "GCTACTGCATGGACCGGTTTTCCCGGTAATCCGTATTTGGC (site GCTACTGCTGC)", "recombinant UMI read abundance (log10)": 1.92},
      {"sequence": "GCTACTGCATGGACCGGTTTTCCCGGTAATCCGTATTTGGC (site GCTACTGCTGG)", "recombinant UMI read abundance (log10)": 0},
      {"sequence": "GCTACTGCATGGACCGGTTTTCCCGGTAATCCGTATTTGGC (site GCTACTGCTGT)", "recombinant UMI read abundance (log10)": 1.54},
      {"sequence": "GCTAGAACATGGACCGGTTTTCCCGGTAATCCGTATTTGGC (site GATAGAACTGC)", "recombinant UMI read abundance (log10)": 0},
      {"sequence": "GCTAGAACATGGACCGGTTTTCCCGGTAATCCGTATTTGGC (site GCTAGAACTGC)", "recombinant UMI read abundance (log10)": 2.02},
      {"sequence": "GCTAGAACATGGACCGGTTTTCCCGGTAATCCGTATTTGGC (site GGTAGAACTGC)", "recombinant UMI read abundance (log10)": 0},
      {"sequence": "GCTAGAACATGGACCGGTTTTCCCGGTAATCCGTATTTGGC (site GTTAGAACTGC)", "recombinant UMI read abundance (log10)": 0},
      {"sequence": "GCTAGCACATGGACCGGTTTTCCCGGTAATCCGTATTTGCT (site GCTAGCACTAG)", "recombinant UMI read abundance (log10)": 1.64},
      {"sequence": "GCTAGTGCATGGACCGGTTTTCCCGGTAATCCGTATTTGCC (site GCTAATGCTGG)", "recombinant UMI read abundance (log10)": 0},
      {"sequence": "GCTAGTGCATGGACCGGTTTTCCCGGTAATCCGTATTTGCC (site GCTACTGCTGG)", "recombinant UMI read abundance (log10)": 0},
      {"sequence": "GCTAGTGCATGGACCGGTTTTCCCGGTAATCCGTATTTGCC (site GCTAGTGCTGG)", "recombinant UMI read abundance (log10)": 1.86},
      {"sequence": "GCTAGTGCATGGACCGGTTTTCCCGGTAATCCGTATTTGCC (site GCTATTGCTGG)", "recombinant UMI read abundance (log10)": 0},
      {"sequence": "GCTATCACATGGACCGGTTTTCCCGGTAATCCGTATTTGGG (site GCTATCACTCC)", "recombinant UMI read abundance (log10)": 0.147},
      {"sequence": "GCTATTGCATGGACCGGTTTTCCCGGTAATCCGTATTTGCC (site GCTAATGCTGG)", "recombinant UMI read abundance (log10)": 0},
      {"sequence": "GCTATTGCATGGACCGGTTTTCCCGGTAATCCGTATTTGCC (site GCTACTGCTGG)", "recombinant UMI read abundance (log10)": 0},
      {"sequence": "GCTATTGCATGGACCGGTTTTCCCGGTAATCCGTATTTGCC (site GCTAGTGCTGG)", "recombinant UMI read abundance (log10)": 0.00747},
      {"sequence": "GCTATTGCATGGACCGGTTTTCCCGGTAATCCGTATTTGCC (site GCTATTGCTGG)", "recombinant UMI read abundance (log10)": 0.891},
      {"sequence": "GCTCACCCATGGACCGGTTTTCCCGGTAATCCGTATTTGCT (site GCTCACCCTAG)", "recombinant UMI read abundance (log10)": 0},
      {"sequence": "GCTCATTCATGGACCGGTTTTCCCGGTAATCCGTATTTGAG (site GCTCATTCTCT)", "recombinant UMI read abundance (log10)": 1.39},
      {"sequence": "GCTCGCGCATGGACCGGTTTTCCCGGTAATCCGTATTTGTG (site GCTCGCGCTCA)", "recombinant UMI read abundance (log10)": 0.397}
    ]}
  ]
}
